pKd: −log10 of the molar value.

The source of these data is patent US8691187B2, “Imaging agents for detecting neurological disorders” (Eli Lilly and Company, priority 2009, dated 2014).

One assay deals with tau aggregates. Description: Fluorescent compound staining on human AD brain sections (tau IHC double labeling). The format is binding. The settings on record: Table 2 acetylenes; 100 uM compound; qualitative rating + to ++++ or words. The source says:
(§1) Native forms of tau (various isoforms, hyperphosphorylated) and amyloid aggregates are present in brain sections and therefore preferred for compound testing. Using the self-fluorescence of a test compound can give an indication of whether the compound binds to tau tangles/PHFs and/or amyloid plaques. This is further confirmed by immunostaining with Aβ and tau antibodies and overlaying the images. […] However, it is possible to “rate” the signal strength qualitatively and distinguish compounds that show binding to these aggregates.
(§2) In one of the embodiments of the present invention, the self-fluorescence of the compound of formula (I) is used to determine whether the compound binds to tau/amyloid in the brain sections and to give it a qualitative rating. The next step is to proceed to the autoradiography using different brain types for further evaluation and quantitation.
(§3) Tau fluorescent compounds staining on human brain sections (Double or triple labeled with tau and β-amyloid Immunohistochemistry (IHC))
(§4) Serial sections (6 μm thick) from OCT-embedded frozen blocks of front lobe were used for staining (OCT—optimal cutting temperature). After fixation and quenching of autofluorescence, tissue sections were incubated with in 100 μM of tau compound in 50% ethanol PBS for 60 min. Then sections were dipped briefly into water, rinsed in PBS, blocked with 5% normal horse serum in PBS for 1 hour at room temperature. After blocking, the tissue was incubated with tau or β-amyloid primary antibody at 4° C. overnight in a humid chamber. Next day, the sections were washed with PBS and then incubated with secondary antibody for 1 hour.

In the next assay the test system is AD brain sections. Description: Fluorescent compound staining on human AD brain sections (self-fluorescence, overall binding). Particulars: for binding of fluorescent compound to AD brain sections confirmed by immunostaining with tau or Aβ antibodies: figure legends, double labeling at 100 uM.
Text: as §1, §2, §3, §4

The next assay concerns the target T1, Aβ plaques (Homo sapiens, UniProt P05067).
T1 construct: Native forms of tau (various isoforms, hyperphosphorylated) and amyloid aggregates are present in brain sections; from tissue; host or cells: human AD brain, frozen frontal lobe sections
Description: Fluorescent compound staining on human AD brain sections (β-amyloid IHC double labeling). The format is binding. Particulars: Table 3 benzimidazoles; 100 uM compound; qualitative rating 1+ to 4+ / + to +++.
Text: as §1, §2, §3, §4

For a further assay, the target named is synthetic tau (Homo sapiens, UniProt P10636). Kind of assay: Synthetic tau Kd (F-18 labeled and cold compound, filtration). It counts as binding. The settings on record: Scheme 5 table. The procedure: Pick one brain section for each type and air-dry in hood. A solution of diluted F-18 labeled tracer (40 μCi/mL, 500 μL) which was obtained from the dilution of F-18 tracer with 1×PBS containing 2.5% EtOH and 2.5% DMSO was applied onto each slides to cover the whole tissue section. The resulting slides were incubated at room temperature for 90 minutes, drained, and placed onto a slide holder. The slides were then washed sequentially with 1×PBS for 1 min; 70% EtOH in 1×PBS for 2 min; 30% EtOH in 1×PBS for 2 min; and 1×PBS for 1 min. The slides were dried in the hood for 30 min, and then placed on Fuji imaging plates and exposed overnight. The imaging plates were then scanned and the signal was measured using Fuji software to produce an autoradiography image of the brain section. (PBS—Phosphate Buffer Saline) Protocol for Synthetic Beta-amyloid and Tau Kds
synthetic tau, sequence (P10636 whole entry): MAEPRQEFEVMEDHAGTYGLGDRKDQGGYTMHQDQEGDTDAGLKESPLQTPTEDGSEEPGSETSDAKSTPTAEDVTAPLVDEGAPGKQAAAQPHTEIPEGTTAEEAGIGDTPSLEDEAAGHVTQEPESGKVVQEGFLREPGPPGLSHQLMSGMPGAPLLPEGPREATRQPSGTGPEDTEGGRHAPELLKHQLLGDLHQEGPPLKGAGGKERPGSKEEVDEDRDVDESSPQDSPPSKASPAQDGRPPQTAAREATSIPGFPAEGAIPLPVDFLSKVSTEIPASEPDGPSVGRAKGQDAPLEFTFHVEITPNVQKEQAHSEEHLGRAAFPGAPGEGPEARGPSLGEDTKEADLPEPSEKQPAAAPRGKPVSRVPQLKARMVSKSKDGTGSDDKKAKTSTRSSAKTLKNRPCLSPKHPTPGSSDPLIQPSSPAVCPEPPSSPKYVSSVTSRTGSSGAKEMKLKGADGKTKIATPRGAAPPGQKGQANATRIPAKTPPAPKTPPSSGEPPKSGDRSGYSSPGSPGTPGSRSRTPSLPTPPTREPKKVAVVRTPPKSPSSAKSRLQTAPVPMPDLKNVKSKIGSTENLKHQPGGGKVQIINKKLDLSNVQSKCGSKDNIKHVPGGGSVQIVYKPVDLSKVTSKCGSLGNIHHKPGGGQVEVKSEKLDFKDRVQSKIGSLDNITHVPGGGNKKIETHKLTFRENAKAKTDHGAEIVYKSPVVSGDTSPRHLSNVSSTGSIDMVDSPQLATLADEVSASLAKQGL
Various concentrations solution of F-18 labeled and its parent cold compound in 1×PBS containing 5% Ethanol and 5% DMSO (pH 7.4) were incubated with synthetic beta-Amyloid or synthetic tau at room temperature in glass tubes for 90 min. The reaction mixture in each tube was filtered under vacuum through a microfiber filter. Each tube was washed with a solution of 20% EtOH in PBS. The PBS wash solution was filtered under vacuum through the filters. Each filter was then washed with a solution of 20% EtOH in PBS and then placed into a gamma counter vial for CPM counting. The data obtained was plotted for Kd determination.

T1 sequence (P05067 672-713 limits assumed): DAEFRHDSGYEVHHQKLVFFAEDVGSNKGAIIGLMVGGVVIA

As to `CN(C)c1ccc(C#Cc2nc3ccccc3n2CCF)cc1` [Compound T482, 4-((1-(2-Fluoroethyl)-1H-benzo[d]imidazol-2-yl)ethynyl)-N,N-dimethylaniline], the “Brain Section Staining: tau” value in the assay on tau aggregates is reported as “Mostly binds to Tau”. Besides, the “binding of fluorescent compound to AD brain sections confirmed by immunostaining with tau or Aβ antibodies” value in the assay on AD brain sections is listed as “total tau binding”. In the case of `CN(C)c1ccc(-c2ccc(-c3nc4ccccc4n3CCF)cc2)cc1` [Compound T543, 4′-(1-(2-Fluoroethyl)-1H-benzo[d]imidazol-2-yl)-N,N-dimethyl-[1,1′-biphenyl]-4-amine], on Aβ plaques, the “Brain Section Staining: Aβ” value is “no binding”. Further, the “binding of fluorescent compound to AD brain sections confirmed by immunostaining with tau or Aβ antibodies” value in the assay with AD brain sections was “binding”. `CN1CCN(c2ccc(-c3cc(F)c4ccccc4n3)cc2)CC1` [Compound T559]: the “Brain Section Staining: fluorescence” value with AD brain sections (Table 1 quinolines, 100 uM compound) is “No fluorescence”. The pKd is −log10 of the Kd, conventionally taken in molar units. Read a low pKd as a high Kd. For `COc1ccc2nc3cc(-c4ccc(F)nc4)ccn3c2c1` [Compound T663, 3-(6-Fluoropyridin-3-yl)-8-methoxybenzo[4,5]imidazo[1,2-a]pyridine], the pKd at synthetic tau is 6.98.
